pIC50: −log10 of the molar value. Like-named read-outs stand apart in the source and are kept apart here. Ends that are not written are not given here.
Experiments:
[1] = target: T1, DRB1*0405 (Homo sapiens, UniProt P01903+P01911, A100R/A169T/D86S/F76Y/I96L/K127E/L162R/M171V/N62H/P40V/Q125Y/R42H/S133A/S149N/S66Y/V115G/V209L/W38E); experiment: Class II peptide-binding assay DRB1*0405 (DR4w15)
T1 construct: Epstein-Barr virus (EBV) transformed homozygous cell lines were used as sources of human HLA Class II molecules; endogenous in cells; host or cells: KT3 (EBV-transformed homozygous B cell line)

[2] = target: T2, DRB3*0101 (Homo sapiens, UniProt P01903+P79483); experiment: Class II peptide-binding assay DRB3*0101 (DR52a)
T2 construct: expressed in transfected cells; host or cells: transfected fibroblasts TR81.19

[3] = target: T3, DRB1*0802 (Homo sapiens, UniProt P01903+P01911, A100R/A103L/A169T/F76Y/H45Y/I96F/K41T/L162R/M171V/P40S/Q125H/Q178H/Q39Y/Q99D/R218S/R42G/S66Y/V115G/W38E); experiment: Class II peptide-binding assay DRB1*0802 (DR8w2)
T3 construct: Epstein-Barr virus (EBV) transformed homozygous cell lines were used as sources of human HLA Class II molecules; endogenous in cells; host or cells: OLL (EBV-transformed homozygous B cell line)

[4] = target: DRB1*0901 (Homo sapiens, UniProt P01903+P01911, A100R/A103E/D57H/D86V/F55Y/F60I/F76Y/I96F/K127E/L162R/M171V/P40D/Q125H/Q99R/R33Q/R42F/S133A/S66N/T210M/V115G/W38K/Y107V/Y59G/Y89S); experiment: Class II peptide-binding assay DRB1*0901 (DR9)
[5] = target: T4, DRB1*0401 (Homo sapiens, UniProt P01903+P01911, A100K/A169T/F76Y/I96L/K127E/L162R/M171V/N62H/P40V/Q125Y/R42H/S133A/S149N/S66Y/V115G/V209L/W38E); experiment: Class II peptide-binding assay DRB1*0401 (DR4w4)
T4 construct: Epstein-Barr virus (EBV) transformed homozygous cell lines were used as sources of human HLA Class II molecules; endogenous in cells; host or cells: PREISS (EBV-transformed homozygous B cell line)

[6] = target: T5, DRB1*0701 (Homo sapiens, UniProt P01903+P01911, A100R/A102G/A103Q/D57E/D86V/E43K/F76Y/K127E/L162R/M171V/P40G/Q125H/Q99D/R33Q/R42Y/R54Q/S133A/S66F/T210M/V115G/Y107V/Y59L/Y89S); experiment: Class II peptide-binding assay DRB1*0701 (DR7)
T5 construct: Epstein-Barr virus (EBV) transformed homozygous cell lines were used as sources of human HLA Class II molecules; endogenous in cells; host or cells: PITOUT (EBV-transformed homozygous B cell line)

[7] = target: T6, DRB4*0101 (Homo sapiens, UniProt P01903+P13762, G164S); experiment: Class II peptide-binding assay DRB4*0101 (DRw53)
T6 construct: expressed in transfected cells; host or cells: transfected fibroblasts L257.6

[8] = target: T7, DRB1*0404 (Homo sapiens, UniProt P01903+P01911, A100R/A169T/F76Y/I96L/K127E/L162R/M171V/N62H/P40V/Q125Y/R42H/S133A/S149N/S66Y/V209L/W38E); experiment: Class II peptide-binding assay DRB1*0404 (DR4w14)
T7 construct: Epstein-Barr virus (EBV) transformed homozygous cell lines were used as sources of human HLA Class II molecules; endogenous in cells; host or cells: BIN40 (EBV-transformed homozygous B cell line)

[9] = target: T8, DRB5*0101 (Homo sapiens, UniProt P01903+Q30154); experiment: Class II peptide-binding assay DRB5*0101 (DR2w2a)
T8 construct: Epstein-Barr virus (EBV) transformed homozygous cell lines were used as sources of human HLA Class II molecules; endogenous in cells; host or cells: GM3107 (EBV-transformed homozygous B cell line)

[10] = target: T9, DRB1*1302 (Homo sapiens, UniProt P01903+P01911, A100E/A169T/K41T/L162R/M171V/P40S/Q125H/Q178H/Q39Y/Q99D/R42S/S66N/T262R/V115G/W38E/Y61H); experiment: Class II peptide-binding assay DRB1*1302 (DR6w19)
T9 construct: Epstein-Barr virus (EBV) transformed homozygous cell lines were used as sources of human HLA Class II molecules; endogenous in cells; host or cells: HO301 / H0301 (EBV-transformed homozygous B cell line)

[11] = target: T10, DRB1*1101 (Homo sapiens, UniProt P01903+P01911, A100R/A169T/A87E/I96F/K41T/L162R/M171V/P40S/Q125H/Q178H/Q39Y/Q99D/R42S/S66Y/T262R/V115G/W38E); experiment: Class II peptide-binding assay DRB1*1101 (DR5w11)
T10 construct: Epstein-Barr virus (EBV) transformed homozygous cell lines were used as sources of human HLA Class II molecules; endogenous in cells; host or cells: SWEIG (EBV-transformed homozygous B cell line)

[12] = target: DQB1*0301 (Homo sapiens, UniProt P01909+P01920); experiment: Class II peptide-binding assay DQB1*0301; settings: IFNb 15-mer peptides, Table 5D
[13] = target: T11, DRB1*0301 (Homo sapiens, UniProt P01903+P01911, A100K/A102G/A103R/A169T/F55Y/I96L/K41T/L162R/M171V/P40S/Q125H/Q178H/Q39Y/R42S/S66N/T106N/T262R/W38E/Y61H); experiment: Class II peptide-binding assay DRB1*0301 (DR3)
T11 construct: Epstein-Barr virus (EBV) transformed homozygous cell lines were used as sources of human HLA Class II molecules; endogenous in cells; host or cells: MAT (EBV-transformed homozygous B cell line)

[14] = target: T12, DRB1*1501 (Homo sapiens, UniProt P01903+P01911); experiment: Class II peptide-binding assay DRB1*1501 (DR2w2b)
T12 construct: expressed in transfected cells; host or cells: transfected fibroblasts L466.1

[15] = target: T13, DRB1*0101 (Homo sapiens, UniProt P01903+P01911, A100R/D57E/F55L/F60I/F76Y/I96L/L162R/M171V/P40L/Q125E/R42F/V115G/Y59C); experiment: Class II peptide-binding assay DRB1*0101 (DR1)
T13 construct: Epstein-Barr virus (EBV) transformed homozygous cell lines were used as sources of human HLA Class II molecules; endogenous in cells; host or cells: LG2 (EBV-transformed homozygous B cell line)

[16] = known HLA-DR and DQ restricted epitopes, Table 6

T9 sequence (P01903 26-254, other chains not shown): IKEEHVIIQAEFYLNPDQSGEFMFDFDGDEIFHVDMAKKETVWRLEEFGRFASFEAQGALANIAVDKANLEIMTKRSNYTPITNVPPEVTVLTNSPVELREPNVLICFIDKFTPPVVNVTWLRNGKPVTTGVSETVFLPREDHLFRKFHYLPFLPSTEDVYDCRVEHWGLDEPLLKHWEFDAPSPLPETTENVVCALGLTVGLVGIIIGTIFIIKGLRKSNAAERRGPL
T10 sequence (P01903 26-254, other chains not shown): as above
Chain of DQB1*0301 (P01920 33-261, other chains not shown): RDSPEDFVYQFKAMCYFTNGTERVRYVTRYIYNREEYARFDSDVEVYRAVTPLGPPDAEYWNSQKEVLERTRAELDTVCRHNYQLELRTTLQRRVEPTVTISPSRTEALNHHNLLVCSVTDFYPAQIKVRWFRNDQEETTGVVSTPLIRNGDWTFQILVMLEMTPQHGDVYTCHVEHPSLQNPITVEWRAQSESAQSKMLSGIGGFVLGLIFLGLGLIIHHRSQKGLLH
T11 sequence (P01903 26-254, other chains not shown): as the sequence (P01903 26-254, other chains not shown) above

## DIEKKIAKMEKASSVFNVVNS
[1]
  pIC50: 5.47
[2]
  pIC50: < 4.70
[3]
  pIC50: < 4.70
[4]
  pIC50: < 4.70
[5]
  pIC50: 7.01
[6]
  pIC50: 5.60
[7]
  pIC50: < 4.70
[8]
  pIC50: 6.00
[9]
  pIC50: 5.74
[10]
  pIC50: < 4.82
[11]
  pIC50: 7.05

## GRLEYCLKDRRNFDI
[12]
  pIC50: 5.20

## KEDSHCAWTIVRVEI
[12]
  pIC50: 5.39

## MSYNLLGFLQRSSNC
[12]
  pIC50: 5.13

## QKEDAAVTIYEMLQN
[12]
  pIC50: 6.29

## YSGPLKAEIAQRLEDV
[1]; [16]
  pIC50: < 5.60
[2]
  pIC50: 5.88
[13]; [16]
  pIC50: 4.95
[3]
  pIC50: < 4.70
[4]; [16]
  pIC50: 4.74
[5]; [16]
  pIC50: 5.59
[14]; known HLA-DR and DQ restricted epitopes, Table 6, read-out: Binding capacity (IC50 nM) DRB1*1501
  IC50: > 20000 nM
[7]
  pIC50: 5.35
[8]; [16]
  pIC50: < 4.70
[15]
  pIC50: 7.89
[10]; [16]
  pIC50: 6.11
[11]; [16]
  pIC50: < 4.70

## YTLLQAAPALDKLKLTGDEATGANI
[1]
  pIC50: 6.97
[2]
  pIC50: 5.41
[13]
  pIC50: 5.69
[3]
  pIC50: 6.80
[4]
  pIC50: 5.71
[5]
  pIC50: 6.54
[14]
  pIC50: 5.98
[6]
  pIC50: < 4.70
[8]
  pIC50: 5.95
[9]
  pIC50: 8.20
[15]
  pIC50: 8.68
[10]
  pIC50: < 5.30
[11]
  pIC50: 6.70

— patent US20070184519A1, “Peptides, polypeptides, and proteins of reduced immunogenicity and methods for their production” (priority 2003, published 2007)
